According to patent US20140308317A1, “Polymeric Compounds And Methods Of Making And Using The Same” (CELLCEUTIX CORPORATION, priority 2012, published 2014):
Converted amounts (≈) assume the structure as drawn.

Experiments:
HepG2, HB-8065 = experiment: Cytotoxicity colorimetric (tetrazolium) assay; assay type: cell-based, human; conditions: HepG2 cells; one hour with compound in serum-free media
Procedure, shortened: (§1)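 HepG2 (MEM, 10% FBS) and NIH/3T3 (DMEM, 10% BCS) monolayers seeded at 2×10^4 cells/well 24 h before use, then exposed to compounds for one hour in serum-free medium. After return to serum-containing medium, viable cells read by tetrazolium bioreduction to formazan. EC50 in μg/mL from four-parameter logistic fit.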

[1] = test system: Pseudomonas aeruginosa ATCC 10145; experiment: Minimum Inhibitory Concentration (MIC), modified microbroth dilution; assay type: cell-based; conditions: P. aeruginosa (10145); overnight incubation (18 hours)
[2] = test system: Klebsiella pneumoniae ATCC 13883; experiment: as above; assay type: cell-based; conditions: K. pneumoniae (13883); overnight incubation (18 hours)
NIH/3T3 cells, CRL-1658 = experiment: Cytotoxicity colorimetric (tetrazolium) assay; assay type: cell-based, mouse; conditions: NIH/3T3 cells; one hour with compound in serum-free media
Procedure, shortened: as §1

E. Coli ATCC 25922 = experiment: Minimum Inhibitory Concentration (MIC), modified microbroth dilution; assay type: cell-based; conditions: E. coli (25922); overnight incubation (18 hours)
[3] = test system: Enterococcus faecalis ATCC 29212; experiment: as above; assay type: cell-based; conditions: E. faecalis (29212); overnight incubation (18 hours)
[4] = test system: Staphylococcus aureus ATCC 27660; experiment: as above; assay type: cell-based; conditions: S. aureus (27660); overnight incubation (18 hours)
[5] = test system: S. enteritidis ATCC 13076; experiment: Time-kill study; assay type: cell-based
Experimental: Time-kill studies of the compounds versus S. enteritidis ATCC 13076, E. coli ATCC25922, E. coli (lab strain) D31, and S. aureus ATCC27660 were determined in a standard protocol by measuring the time it takes to reduce the initial inoculums 3 log units. Three mL of cation-adjusted Mueller-Hinton medium was inoculated with 20 μL of frozen bacterial stock and incubated at 37° C. on a shaker platform (at 250 rpm) overnight. The suspension was diluted to approximately 5×10^5 cfu/mL and treated with 2×, 5×, 10×, and 20×MIC (MIC=1 μg/mL). The compound stock solutions were prepared at 10 mg/mL in DMSO. Time points were collected and viable bacteria were counted on MH Agar plates after an 18 hour incubation.
The time kill study was carried on Compound 200 against S. enteritidis ATCC 13076.

| Compound | EC50 HepG2 (cytotoxicity) (HepG2, HB-8065) | MIC50 P. Aeruginosa [1] | MIC50 K. Pnuemnoiae [2] | EC50 NIH 3T3 (cytotoxicity) (NIH/3T3 cells, CRL-1658) | MIC50 E. coli (E. Coli ATCC 25922) | MIC50 E. faecalis [3] | MIC50 S. aureus [4] | time at which bacterial growth was reduced more than 3 log ([5]; 2×MIC) | time at which bacterial growth was reduced more than 3 log ([5]; 5×MIC) | time at which bacterial growth was reduced more than 3 log ([5]; 10×MIC) |
| --- | --- | --- | --- | --- | --- | --- | --- | --- | --- | --- |
| CCn1c2ccc(-c3cc(C(=O)NCCN)cc(C(=O)NCCN)c3)cc2c2cc(-c3cc(C(=O)NCCN)cc(C(=O)NCCN)c3)ccc21 [Compound 169] | 312 µg/mL (≈ 451 µM) | >50 µg/mL | >50 µg/mL | 450 µg/mL (≈ 650 µM) | 25 µg/mL (≈ 36.1 µM) | >50 µg/mL | 3.13 µg/mL (≈ 4.52 µM) | – | – | – |
| NCCCNC(=O)c1cc(C(=O)NCCCN)cc(-c2ccc3sc4ccc(-c5cc(C(=O)NCCCN)cc(C(=O)NCCCN)c5)cc4c3c2)c1 [Compound 171] | 236 µg/mL (≈ 320 µM) | >100 µg/mL | >100 µg/mL | 46.5 µg/mL (≈ 63.1 µM) | >100 µg/mL | >100 µg/mL | 6.25 µg/mL (≈ 8.48 µM) | – | – | – |
| NCCN(CCN)Cc1cccc(-c2ccc3sc4ccc(-c5cccc(CN(CCN)CCN)c5)cc4c3c2)c1 [Compound 174] | 171 µg/mL (≈ 302 µM) | 3.13 µg/mL (≈ 5.52 µM) | 3.13 µg/mL (≈ 5.52 µM) | 149 µg/mL (≈ 263 µM) | 3.13 µg/mL (≈ 5.52 µM) | 3.13 µg/mL (≈ 5.52 µM) | 0.195 µg/mL (≈ 0.344 µM) | – | – | – |
| c1cc(CN2CCNCC2)cc(-c2ccc3sc4ccc(-c5cccc(CN6CCNCC6)c5)cc4c3c2)c1 [Compound 175] | 19.4 µg/mL (≈ 36.4 µM) | 25 µg/mL (≈ 46.9 µM) | 12.5 µg/mL (≈ 23.5 µM) | 19.9 µg/mL (≈ 37.4 µM) | 6.25 µg/mL (≈ 11.7 µM) | 12.5 µg/mL (≈ 23.5 µM) | 0.39 µg/mL (≈ 0.732 µM) | – | – | – |
| Nc1cccc(-c2ccc3[nH]c4ccc(-c5cccc(N)c5)cc4c3c2)c1 [Compound 177] | >1000 µg/mL | 12.5 µg/mL (≈ 35.8 µM) | >50 µg/mL | 487 µg/mL (≈ 1390 µM) | 1.56 µg/mL (≈ 4.46 µM) | >50 µg/mL | 1.56 µg/mL (≈ 4.46 µM) | – | – | – |
| NCCN(CCN)Cc1cccc(-c2ccc3[nH]c4ccc(-c5cccc(CN(CCN)CCN)c5)cc4c3c2)c1 [Compound 179] | 615 µg/mL (≈ 1120 µM) | 25 µg/mL (≈ 45.5 µM) | >50 µg/mL | 179 µg/mL (≈ 326 µM) | 1.56 µg/mL (≈ 2.84 µM) | >50 µg/mL | 1.56 µg/mL (≈ 2.84 µM) | – | – | – |
| NCCN(CCN)Cc1ccc(F)c(-c2ccc3sc4ccc(-c5cc(CN(CCN)CCN)ccc5F)cc4c3c2)c1 [Compound 180] | 104 µg/mL (≈ 173 µM) | 3.13 µg/mL (≈ 5.19 µM) | 1.56 µg/mL (≈ 2.59 µM) | 43.1 µg/mL (≈ 71.5 µM) | 1.56 µg/mL (≈ 2.59 µM) | 3.13 µg/mL (≈ 5.19 µM) | 0.098 µg/mL (≈ 0.163 µM) | – | – | – |
| NCCCN(CCCN)Cc1cccc(-c2ccc3sc4ccc(-c5cccc(CN(CCCN)CCCN)c5)cc4c3c2)c1 [Compound 181] | 212 µg/mL (≈ 340 µM) | 6.25 µg/mL (≈ 10 µM) | 6.25 µg/mL (≈ 10 µM) | 83.1 µg/mL (≈ 133 µM) | 3.13 µg/mL (≈ 5.02 µM) | 6.25 µg/mL (≈ 10 µM) | 0.195 µg/mL (≈ 0.313 µM) | – | – | – |
| NCCCOc1cc(-c2ccc3sc4ccc(-c5cc(OCCCN)c(OCCCN)c(OCCCN)c5)cc4c3c2)cc(OCCCN)c1OCCCN [Compound 184] | 100 µg/mL (≈ 129 µM) | 6.25 µg/mL (≈ 8.06 µM) | 12.5 µg/mL (≈ 16.1 µM) | 57 µg/mL (≈ 73.5 µM) | 6.25 µg/mL (≈ 8.06 µM) | 6.25 µg/mL (≈ 8.06 µM) | 1.56 µg/mL (≈ 2.01 µM) | – | – | – |
| NCCCOc1cc(OCCCN)cc(-c2ccc3sc4ccc(-c5cc(OCCCN)cc(OCCCN)c5)cc4c3c2)c1 [Compound 200] | 126 µg/mL (≈ 200 µM) | 3.13 µg/mL (≈ 4.98 µM) | 1.56 µg/mL (≈ 2.48 µM) | 155 µg/mL (≈ 246 µM) | 0.78 µg/mL (≈ 1.24 µM) | 0.39 µg/mL (≈ 0.62 µM) | 0.049 µg/mL (≈ 0.0779 µM) | 3.75 hour | 1.55 hour | 1.35 hour |
